Experimental data: patent publication US20030177531A1, “Regulating metabolism by modifying the level of trehalose-6-phosphate by inhibiting endogenous trehalase levels” (Mogen International N.V., priority 1997, published 2003)

Tests used:
[1] = test system: α- or β-glycohydrolase activity; settings: except for trehalase; cited from earlier work
[2] = test system: trehalase activity; assay: Trehalose accumulation in potato microtubers induced on medium with Validamycin A; type: cell-based, Solanum tuberosum cv. Kardal; settings: for Trehalose (% fresh weight), +Validamycin A: 10^−3M Validamycin A
Description: Stem segments of in vitro potato plants harbouring an auxiliary meristem were transferred to micro-tuber inducing medium. Micro-tuber inducing medium contains 1×MS-salts supplemented with R3 vitamins, 0.5 g/l MES (final pH=5.8, adjusted with KOH) and solidified with 8 g/l Daichin agar, 60 g/l sucrose and 2.5 mg/l kinetin. After 3 to 5 weeks of growth in the dark at 24° C., micro-tubers were formed.
Validamycin A was isolated from Solacol, a commercial agricultural formulation (Takeda Chem. Indust., Tokyo) as described by Kendall et al. (1990) Phytochemistry 29, 2525. The procedure involves ion-exchange chromatography (QAE-Sephadex A-25 (Pharmacia), bed vol. 10 ml, equilibration buffer 0.2 mM Na-Pi pH 7) from a 3% agricultural formulation of Solacol. Loading 1 ml of Solacol on the column and eluting with water in 7 fractions, practically all Validamycin was recovered in fraction 4. Based on a 100% recovery, using this procedure, the concentration of Validamycin A was adjusted to 1.10^−3M in MS-medium, for use in trehalose accumulation tests. Alternatively, Validamycin A and B may be purified directly from Streptomyces hygroscopicus var. limoneus, as described by Iwasa et al. (1971) J. Antibiot. 24, 119, the content of which is incorporated herein by reference.
Carbohydrates were determined quantitatively by anion exchange chromatography with pulsed electrochemical detection. Extracts were prepared by extracting homogenized frozen material with 80% EtOH. After extraction for 15 minutes at room temperature, the soluble fraction is evaporated and dissolved in distilled water. Samples (25 μl) were analyzed on a Dionex DX-300 liquid chromatograph equipped with a 4×250 mm Dionex 35391 carbopac PA-1 column and a 4×50 mm Dionex 43096 carbopac PA-1 precolumn. Elution was with 100 mM NaOH at 1 ml/min followed by a NaAc gradient. Sugars were detected with a pulsed electrochemical detector (Dionex, PED). Commercially available carbohydrates (Sigma) were used as a standard.
Transgenic potato plants were generated harbouring the otsA gene driven by the potato tuber-specific patatin promoter (pMOG845). Potato Solanum tuberosum cv. Kardal tuber discs were transformed with Agrobacterium tumefaciens EHA105 harbouring the binary vector pMOG845. […] All plants obtained were phenotypically indistinguishable from wild type plants. […] The presence of small amounts of trehalose in wild-type plants indicates the presence of a functional trehalose biosynthetic pathway.

In the case of `OCC1=C[C@H](N[C@H]2C[C@H](CO)[C@@H](O[C@@H]3O[C@H](CO)[C@@H](O)[C@H](O)[C@H]3O)[C@H](O)[C@H]2O)[C@H](O)[C@@H](O)[C@@H]1O` [Validamycin A, 1,5,6-trideoxy-3-o-β-D-glucopyranosyl-5-(hydroxymethyl)-1-[[4,5,6-trihydroxy-3-(hydroxymenthyl)-2-cyclohexen-1-yl]amino]-D-chiro-inositol], the “Inhibition of α- or β-glycohydrolase activity other than trehalase” value [1] is given as “does not significantly inhibit”, the “Trehalose level in microtubers versus medium without Validamycin A” value ([2]; microtuber-inducing medium with 10^−3M Validamycin A, transgenic pMOG845 and wild-type plants) is given as “elevated levels of trehalose” and the “Trehalose (% fresh weight), +Validamycin A” value (“Trehalose (% fresh weight)” below) ([2]; microtubers of transgenic line 845-2 (pat-TPS)) is given as 0.016 % fresh weight. For the same molecule, the “Trehalose (% fresh weight)” value ([2]; microtubers of transgenic line 845-8 (pat-TPS)) was 0.051 % fresh weight, the “Trehalose (% fresh weight)” value ([2]; microtubers of transgenic line 845-11 (pat-TPS)) was 0.015 % fresh weight and the “Trehalose (% fresh weight)” value ([2]; microtubers of transgenic line 845-13 (pat-TPS)) was 0.011 % fresh weight. For the same molecule, the “Trehalose (% fresh weight)” value ([2]; microtubers of transgenic line 845-22 (pat-TPS)) was 0.112 % fresh weight, the “Trehalose (% fresh weight)” value ([2]; microtubers of transgenic line 845-25 (pat-TPS)) was 0.002 % fresh weight and the “Trehalose (% fresh weight)” value ([2]; microtubers of transgenic line 845-28 (pat-TPS)) was 0.109 % fresh weight. The “Trehalose (% fresh weight)” value ([2]; microtubers of wild-type Kardal) was 0.001 % fresh weight.
